Experimental findings from US7550497B2, “Phosphoramide derivatives” (Palau Pharma, S.A., priority 2002, dated 2009) are described below.

Test [1] deals with carrageenan-induced hyperalgesia. Briefly: Rat carrageenan-induced hyperalgesia test. In kind it is in vivo. Particulars: male Sprague Dawley rats, 3 mg/Kg intravenous, especially at 120 min after administration. Here is the method:
Test 3.—Rat Carrageenan-Induced Hyperalgesia Test
Male Sprague Dawley rats, randomly distributed into the different groups of treatment, are used. Inflammation is induced by injection of a carrageenan suspension (0.75 mg per paw in 0.05 mL of saline) into the animals' right hind foot pad. One hour 45 min later the test compounds are administered by intravenous route. Two hours after carrageenan injection, hyperalgesia is induced at different times in both hindpaws by using a heat source. At each time, the time of latency till the withdrawal of the paw from the heat source is determined for the control group (vehicle) and the treatment groups, and the result is expressed as the increase of the latency time of the inflammed paw of the treated group versus the control group.

Test [2] relates to carrageenan-induced paw edema. The test can be described thus: Rat carrageenan-induced paw edema assay. Format: in vivo. To be noted: male Sprague Dawley rats, 3 mg/kg i.v., 10 min before carrageenan, paw volume 1-4 h. As to the method: Test 1.—Rat Carrageenan-Induced Paw Edema Assay
Male Sprague Dawley rats (150-175 g) are used. The animals are fasted during 18 hours prior to the experiment and kept with water ad libitum, and are randomly distributed into the different groups of treatment. Inflammation is induced by injecting 0.1 mL of 1% λ-carrageenan solution (Sigma) to the animals' right hindpaw, and the inflammatory response (increase in paw volume) is measured with a plethysmometer (UGO BASILE). Paw volumes are measured just before the administration of test compounds and at 1, 2, 3 and 4 hours after the injection of carrageenan. The compounds are administered through the tail vein, dissolved in DMSO and saline (1 mL/Kg), 10 minutes before the injection of carrageenan. At the same time, 5 mL of water are administered by the oral route in order to facilitate hydration and subsequent inflammatory reaction. The percentages of inhibition of the different treatments tested are calculated by comparing the area under the curve obtained for the treated animals versus the one obtained for the control group. Said areas are obtained by integration from a graphical representation of paw volume versus time.
The results obtained with representative compounds of the present invention are shown in the following table, where the % of inhibition of inflammation at a dose of 3 mg/kg i.v. of test compound are reported.

Consider `COc1ccc(-c2c(Cl)ncn2-c2ccc(S(=O)(=O)NP(=O)(O)O)cc2)cc1F` [Example 6, N-[4-[4-Chloro-5-(3-fluoro-4-methoxyphenyl)imidazol-1-yl]phenylsulfonyl]phosphoramidic Acid], for which the “analgesic activity (increase of latency time of the inflamed paw vs control)” value in test [1] was “significant analgesic activity”. In test [2], the “% inhibition of inflammation (paw volume AUC vs control)” value stood at 34.8%.
As to “Diethyl N-[4-[4-chloro-5-(3-fluoro methoxyphenyl)imidazol-1-yl]phenylsulfonyl]phosphoramidate [Example 1]”, the “% inhibition of inflammation (paw volume AUC vs control)” value in test [2] is 20.7%.
On the same count and under the same terms, the result for `CCOP(=O)([O-])NS(=O)(=O)c1ccc(-n2cnc(Cl)c2-c2ccc(OC)c(F)c2)cc1.[Na+]` [Example 4, Ethyl N-[4-[4-chloro-5-(3-fluoro-4-methoxyphenyl)imidazol-1-*yl]phenylsulfonyl]phosphoramidate Sodium Salt] reads 23.3%.
